Test results reported in the supplement of paper PMC11208160.

assay: recombinant barcode read abundance after kanamycin selection (control-corrected) (log10(CPM+1)); higher = more efficient recombination; sequences stand for … in AGTGCAGAGAAAATCGGCCAGTTTTCTCTGCCTGCAGTCCGCATGCCGT…ATTTATGCAGCGGACTGCCTTTCTCCCAAAGTGATAAACCGGACAGTATCATGGACCGGTTTTCCCGGTAATCCGTATTTGCAAGGTTGGTTTCACT; site = the 11-nt target
In short: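 Reported as log10(CPM+1), each value stands for recombination efficiency. That efficiency is the averaged, control-corrected counts per million of barcodes found at recombinant junctions. Cells from a pooled E. coli library pairing targets with IS621 bridge RNA target-binding loops were plated twice on chloramphenicol/ampicillin LB agar (control) and twice on chloramphenicol/ampicillin/kanamycin with 0.1 mM IPTG.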

Sequence | recombinant barcode read abundance (log10)
GGACACCTATGGGTTCTAACCTGTTGCCTTA [GGACACCCTAG_LTGcore_TA_RTGcore_TA] (site GGACACCCTAG) (LTG core: TA, RTG core: TA) | 0
GGCTCCCAATGGGTTCTAACCTGTTGCGGTT [GGCTCCCCTCC_LTGcore_AA_RTGcore_AA] (site GGCTCCCCTCC) (LTG core: AA, RTG core: AA) | 0.102
GGCTCCCCATGGGTTCTAACCTGTTGCGGAG [GGCTCCCCTCC_LTGcore_CA_RTGcore_CT] (site GGCTCCCCTCC) (LTG core: CA, RTG core: CT) | 0.0917
GGCTCCCCTTGGGTTCTAACCTGTTGCGGAT [GGCTCCCCTCC_LTGcore_CT_RTGcore_AT] (site GGCTCCCCTCC) (LTG core: CT, RTG core: AT) | 0.0958
GGCTCCCCTTGGGTTCTAACCTGTTGCGGCC [GGCTCCCCTCC_LTGcore_CT_RTGcore_GG] (site GGCTCCCCTCC) (LTG core: CT, RTG core: GG) | 0.131
GGCTCCCCTTGGGTTCTAACCTGTTGCGGTA [GGCTCCCCTCC_LTGcore_CT_RTGcore_TA] (site GGCTCCCCTCC) (LTG core: CT, RTG core: TA) | 0.101
GGCTCCCCTTGGGTTCTAACCTGTTGCGGTC [GGCTCCCCTCC_LTGcore_CT_RTGcore_GA] (site GGCTCCCCTCC) (LTG core: CT, RTG core: GA) | 0.0253
GGCTCCCCTTGGGTTCTAACCTGTTGCGGTG [GGCTCCCCTCC_LTGcore_CT_RTGcore_CA] (site GGCTCCCCTCC) (LTG core: CT, RTG core: CA) | 0.251
GGCTCCCGGTGGGTTCTAACCTGTTGCGGCC [GGCTCCCCTCC_LTGcore_GG_RTGcore_GG] (site GGCTCCCCTCC) (LTG core: GG, RTG core: GG) | 0.203
GGCTCCCGTTGGGTTCTAACCTGTTGCGGAC [GGCTCCCCTCC_LTGcore_GT_RTGcore_GT] (site GGCTCCCCTCC) (LTG core: GT, RTG core: GT) | 0.259
GGCTCCCTTTGGGTTCTAACCTGTTGCGGAA [GGCTCCCCTCC_LTGcore_TT_RTGcore_TT] (site GGCTCCCCTCC) (LTG core: TT, RTG core: TT) | 0.0992
GGCTCCCTTTGGGTTCTAACCTGTTGCGGAG [GGCTCCCCTCC_LTGcore_TT_RTGcore_CT] (site GGCTCCCCTCC) (LTG core: TT, RTG core: CT) | 0.0927
GGGAGCCAATGGGTTCTAACCTGTTGCTGAG [GGGAGCCCTCA_LTGcore_AA_RTGcore_CT] (site GGGAGCCCTCA) (LTG core: AA, RTG core: CT) | 0.235
GGGAGCCATTGGGTTCTAACCTGTTGCTGAT [GGGAGCCCTCA_LTGcore_AT_RTGcore_AT] (site GGGAGCCCTCA) (LTG core: AT, RTG core: AT) | 0.574
GGGAGCCCTTGGGTTCTAACCTGTTGCTGCA [GGGAGCCCTCA_LTGcore_CT_RTGcore_TG] (site GGGAGCCCTCA) (LTG core: CT, RTG core: TG) | 0.122
GGGAGCCCTTGGGTTCTAACCTGTTGCTGCG [GGGAGCCCTCA_LTGcore_CT_RTGcore_CG] (site GGGAGCCCTCA) (LTG core: CT, RTG core: CG) | 0.147
GGGAGCCCTTGGGTTCTAACCTGTTGCTGTG [GGGAGCCCTCA_LTGcore_CT_RTGcore_CA] (site GGGAGCCCTCA) (LTG core: CT, RTG core: CA) | 0.589
GGGAGCCTTTGGGTTCTAACCTGTTGCTGAG [GGGAGCCCTCA_LTGcore_TT_RTGcore_CT] (site GGGAGCCCTCA) (LTG core: TT, RTG core: CT) | 0.364
GGGCGGAAATGGGTTCTAACCTGTTGCGGAG [GGGCGGACTCC_LTGcore_AA_RTGcore_CT] (site GGGCGGACTCC) (LTG core: AA, RTG core: CT) | 0.131
GGGCGGACATGGGTTCTAACCTGTTGCGGAG [GGGCGGACTCC_LTGcore_CA_RTGcore_CT] (site GGGCGGACTCC) (LTG core: CA, RTG core: CT) | 2.27
GGGCGGACGTGGGTTCTAACCTGTTGCGGAG [GGGCGGACTCC_LTGcore_CG_RTGcore_CT] (site GGGCGGACTCC) (LTG core: CG, RTG core: CT) | 1.66
GGGCGGACTTGGGTTCTAACCTGTTGCGGGC [GGGCGGACTCC_LTGcore_CT_RTGcore_GC] (site GGGCGGACTCC) (LTG core: CT, RTG core: GC) | 0.131
GGGCGGACTTGGGTTCTAACCTGTTGCGGGT [GGGCGGACTCC_LTGcore_CT_RTGcore_AC] (site GGGCGGACTCC) (LTG core: CT, RTG core: AC) | 0.273

Sequence | recombinant barcode read abundance (log10)
GGGCGGAGTTGGGTTCTAACCTGTTGCGGAG [GGGCGGACTCC_LTGcore_GT_RTGcore_CT] (site GGGCGGACTCC) (LTG core: GT, RTG core: CT) | 0.389
GGGCGGATCTGGGTTCTAACCTGTTGCGGGA [GGGCGGACTCC_LTGcore_TC_RTGcore_TC] (site GGGCGGACTCC) (LTG core: TC, RTG core: TC) | 0.265
GGGCGTGAGTGGGTTCTAACCTGTTGCCTAG [GGGCGTGCTAG_LTGcore_AG_RTGcore_CT] (site GGGCGTGCTAG) (LTG core: AG, RTG core: CT) | 0.154
GGGCGTGATTGGGTTCTAACCTGTTGCCTAT [GGGCGTGCTAG_LTGcore_AT_RTGcore_AT] (site GGGCGTGCTAG) (LTG core: AT, RTG core: AT) | 0.0806
GGGCGTGCTTGGGTTCTAACCTGTTGCCTCA [GGGCGTGCTAG_LTGcore_CT_RTGcore_TG] (site GGGCGTGCTAG) (LTG core: CT, RTG core: TG) | 1.06
GGGCGTGCTTGGGTTCTAACCTGTTGCCTGG [GGGCGTGCTAG_LTGcore_CT_RTGcore_CC] (site GGGCGTGCTAG) (LTG core: CT, RTG core: CC) | 0.301
GGGCGTGCTTGGGTTCTAACCTGTTGCCTTG [GGGCGTGCTAG_LTGcore_CT_RTGcore_CA] (site GGGCGTGCTAG) (LTG core: CT, RTG core: CA) | 0.0774
GGGCGTGGATGGGTTCTAACCTGTTGCCTTC [GGGCGTGCTAG_LTGcore_GA_RTGcore_GA] (site GGGCGTGCTAG) (LTG core: GA, RTG core: GA) | 0.0142
GGGCGTGGCTGGGTTCTAACCTGTTGCCTGC [GGGCGTGCTAG_LTGcore_GC_RTGcore_GC] (site GGGCGTGCTAG) (LTG core: GC, RTG core: GC) | 0
GGGCGTGGGTGGGTTCTAACCTGTTGCCTAG [GGGCGTGCTAG_LTGcore_GG_RTGcore_CT] (site GGGCGTGCTAG) (LTG core: GG, RTG core: CT) | 0.188
GGGCGTGGTTGGGTTCTAACCTGTTGCCTAG [GGGCGTGCTAG_LTGcore_GT_RTGcore_CT] (site GGGCGTGCTAG) (LTG core: GT, RTG core: CT) | 0.0791
GGGCGTGTCTGGGTTCTAACCTGTTGCCTAG [GGGCGTGCTAG_LTGcore_TC_RTGcore_CT] (site GGGCGTGCTAG) (LTG core: TC, RTG core: CT) | 0.241
GGGCGTGTTTGGGTTCTAACCTGTTGCCTAA [GGGCGTGCTAG_LTGcore_TT_RTGcore_TT] (site GGGCGTGCTAG) (LTG core: TT, RTG core: TT) | 0.0616
GGTGCCCAATGGGTTCTAACCTGTTGCCGTT [GGTGCCCCTCG_LTGcore_AA_RTGcore_AA] (site GGTGCCCCTCG) (LTG core: AA, RTG core: AA) | 0.404
GGTGCCCATTGGGTTCTAACCTGTTGCCGAT [GGTGCCCCTCG_LTGcore_AT_RTGcore_AT] (site GGTGCCCCTCG) (LTG core: AT, RTG core: AT) | 0.0482
GGTGCCCCCTGGGTTCTAACCTGTTGCCGAG [GGTGCCCCTCG_LTGcore_CC_RTGcore_CT] (site GGTGCCCCTCG) (LTG core: CC, RTG core: CT) | 0.15
GGTGCCCCCTGGGTTCTAACCTGTTGCCGGG [GGTGCCCCTCG_LTGcore_CC_RTGcore_CC] (site GGTGCCCCTCG) (LTG core: CC, RTG core: CC) | 0.387
GGTGCCCCGTGGGTTCTAACCTGTTGCCGAG [GGTGCCCCTCG_LTGcore_CG_RTGcore_CT] (site GGTGCCCCTCG) (LTG core: CG, RTG core: CT) | 0.0559
GGTGCCCCGTGGGTTCTAACCTGTTGCCGCG [GGTGCCCCTCG_LTGcore_CG_RTGcore_CG] (site GGTGCCCCTCG) (LTG core: CG, RTG core: CG) | 0.329
GGTGCCCCTTGGGTTCTAACCTGTTGCCGGA [GGTGCCCCTCG_LTGcore_CT_RTGcore_TC] (site GGTGCCCCTCG) (LTG core: CT, RTG core: TC) | 0.0539
GGTGCCCCTTGGGTTCTAACCTGTTGCCGGG [GGTGCCCCTCG_LTGcore_CT_RTGcore_CC] (site GGTGCCCCTCG) (LTG core: CT, RTG core: CC) | 0.295
GGTGCCCCTTGGGTTCTAACCTGTTGCCGTG [GGTGCCCCTCG_LTGcore_CT_RTGcore_CA] (site GGTGCCCCTCG) (LTG core: CT, RTG core: CA) | 0.126
